Measured values: BindingDB's records for doi:10.7270/Q28K77JP (Burnham Center For Chemical Genomics, 2010)

Target: Delta-type opioid receptor (Homo sapiens, UniProt P41143)
Experiment: delta opioid receptor blockers – image-based, SAR follow-up (AID 2357)

Chain of Delta-type opioid receptor (P41143 whole entry): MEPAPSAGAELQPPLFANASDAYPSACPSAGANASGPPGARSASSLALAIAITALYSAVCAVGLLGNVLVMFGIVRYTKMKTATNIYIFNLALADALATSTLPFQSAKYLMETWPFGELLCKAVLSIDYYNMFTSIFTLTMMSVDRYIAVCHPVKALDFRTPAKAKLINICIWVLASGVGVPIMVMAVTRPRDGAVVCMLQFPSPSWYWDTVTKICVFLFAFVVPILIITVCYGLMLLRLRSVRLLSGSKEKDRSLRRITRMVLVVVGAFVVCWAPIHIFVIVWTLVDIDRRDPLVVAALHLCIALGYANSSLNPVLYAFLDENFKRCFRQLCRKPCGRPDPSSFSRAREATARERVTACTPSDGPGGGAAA

Row | Compound | IC50
1 | CCC(N=Nc1ccnc2cc(Cl)ccc12)c1ccc(O)cc1 (configuration not stated) [4-[1-[2-(7-chloroquinolin-4-yl)hydrazinyl]propylidene]cyclohexa-2,5-dien-1-one] | 32 µM
2 | Oc1ccc(CN=Nc2ccnc3cc(Cl)ccc23)cc1O [(4Z)-4-[[2-(7-chloroquinolin-4-yl)hydrazinyl]methylidene]-2-hydroxycyclohexa-2,5-dien-1-one] | 18.9 µM
